What all share (experiment): NCI-60 cell line screen, 48 h
In experiment [1] the test system is COLO 205.
The test system of experiment [2] is OVCAR-3.
Experiment [3] concerns UACC-62.
Experiment [4] relates to IGROV-1.
The subject of experiment [5] is CAKI-1.
For experiment [6], the system named is SF-268.
Experiment [7] has as its system A498.
Experiment [8] concerns NCI/ADR-RES.
In experiment [9] the test system is MOLT-4.
In experiment [10] the test system is HOP-92.
For experiment [11], the system named is SW-620.
Experiment [12] has as its system NCI-H23.
Experiment [13] concerns OVCAR-5.
In experiment [14] the test system is SK-MEL-2.
The subject of experiment [15] is PC-3.
Experiment [16] deals with EKVX.
For experiment [17], the system named is A549.
Experiment [18] deals with MDA-MB-435.
The subject of experiment [19] is HCC 2998.
In experiment [20] the test system is ACHN.

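48-hour exposure; five concentrations; linearly interpolated endpoints. Abbreviation: GI50, concentration required for 50% inhibition of growth.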 Activity calls are given as the source filed them. Rule as the data show it: active = GI50 up to about 1.1 µM and inactive = higher.

On to `COC1(c2cccs2)c2ccccc2C(OC)(c2cccs2)c2ccccc21` (stereo not given), for which the GI50 in experiment [1] is 85.5 µM (inactive); in [2] it was > 100 µM (inactive); in [3], 47.3 µM (inactive); in experiment [4], > 100 µM (inactive); in experiment [5], > 100 µM (inactive); in experiment [6], 48.5 µM (inactive). For the same compound, the GI50 in [7] was 28.5 µM (inactive); in experiment [8] it was 92.7 µM (inactive); in experiment [9] it was 16.7 µM (inactive); in experiment [10], 54.2 µM (inactive); in experiment [11], > 100 µM (inactive); in experiment [12], 23.9 µM (inactive). Moreover, the GI50 in [13] was 44.4 µM (inactive); in experiment [14], 50.5 µM (inactive); in [15] it was 42.9 µM (inactive); in [16], 36.9 µM (inactive); in experiment [17], 94.8 µM (inactive); in experiment [18], > 100 µM (inactive). The values for the GI50 in experiment [19] and in experiment [20] were 49.3 µM (inactive) and > 100 µM (inactive), respectively.
As for `COc1cc(/C=C2/CCS(=O)(=O)c3ccc(C)cc3C2=O)cc(OC)c1OC`, the GI50 was 4.85 µM (inactive) in [1]; 5.5 µM (inactive) in [2]; 4.12 µM (inactive) in [3]; 4.06 µM (inactive) in experiment [4]; 4.65 µM (inactive) in experiment [5]; 4.49 µM (inactive) in experiment [6]. For the same compound, the GI50 was 5.78 µM (inactive) in experiment [7]; 3.14 µM (inactive) in experiment [8]; 3.62 µM (inactive) in [9]; 4.18 µM (inactive) in experiment [10]; 4.76 µM (inactive) in experiment [11]; 3.64 µM (inactive) in [12]. The GI50 in [13] was 5.87 µM (inactive); in experiment [14] it was 9.75 µM (inactive); in experiment [15], 6.73 µM (inactive); in experiment [16], 12.1 µM (inactive); in experiment [17], 4.88 µM (inactive); in [18], 3.79 µM (inactive). Moreover, the GI50 in experiment [19] was 4.34 µM (inactive); in experiment [20], 3.66 µM (inactive).
For the compound `Cc1ccc([S+]([O-])(=Nc2ccccc2)C(C(C)C)C(C)(C)Cl)cc1` (stereo not given), the GI50 is 0.91 µM (active) in experiment [1]; 29.6 µM (inactive) in [2]; 30.9 µM (inactive) in experiment [3]; > 50 µM (inactive) in [4]; 14.5 µM (inactive) in [5]; 44.4 µM (inactive) in [6]. In addition, the GI50 in [7] is 18.5 µM (inactive); in experiment [8], 15 µM (inactive); in experiment [9], 10.5 µM (inactive); in experiment [10] it was 30.1 µM (inactive); in experiment [11], 20.9 µM (inactive); in experiment [12] it was 9.91 µM (inactive). The GI50 in experiment [13] is 22.1 µM (inactive); in [14] it was 12.5 µM (inactive); in [15], 16.1 µM (inactive); in experiment [16], 11.4 µM (inactive); in experiment [17] it was 16.2 µM (inactive); in experiment [18], 10.7 µM (inactive). Moreover, the figures for the GI50 in [19] and in experiment [20] were 21.6 µM (inactive) and 31.6 µM (inactive), respectively.
Turning to `Cc1ccc(C(=O)c2[nH]c(Nc3ccc(Cl)cc3)c(C(=S)Nc3ccccc3)c2N)cc1`, the GI50 in experiment [1] was 1.45 µM (inactive); in experiment [2], 11.3 µM (inactive); in experiment [3], 14.4 µM (inactive); in experiment [4], 4.41 µM (inactive); in [5], 8.67 µM (inactive); in experiment [6], 5.78 µM (inactive). In addition, the GI50 in [7] was 13.6 µM (inactive); in experiment [8] it was 4.37 µM (inactive); in experiment [9], 12.1 µM (inactive); in experiment [10], 12.9 µM (inactive); in experiment [11], 11.5 µM (inactive); in experiment [12] it was 3.14 µM (inactive). Further, the GI50 in experiment [13] is 11 µM (inactive); in [14] it was 14.5 µM (inactive); in experiment [15], 6.84 µM (inactive); in experiment [16], 5.48 µM (inactive); in experiment [17], 2.27 µM (inactive); in experiment [18] it was 6.68 µM (inactive). The GI50 was 2.29 µM (inactive) in [19] and 3.27 µM (inactive) in [20].
As to `Cn1c2ccccc2c2ccc3c(c21)C(=O)C=CC3=O`, the GI50 is 2.43 µM (inactive) in [1]; 7.24 µM (inactive) in [2]; 12.1 µM (inactive) in experiment [3]; 15.4 µM (inactive) in experiment [4]; 4.33 µM (inactive) in [5]; 14.8 µM (inactive) in [6]. The GI50 is > 45.2 µM (inactive) in [7]; 5.16 µM (inactive) in experiment [8]; 0.755 µM (active) in experiment [9]; 2.52 µM (inactive) in [10]; 2.02 µM (inactive) in [11]; 12.7 µM (inactive) in experiment [12]. For the same compound, the GI50 in experiment [13] was 14.1 µM (inactive); in [14] it was 15.6 µM (inactive); in [15], 5.6 µM (inactive); in experiment [16], 19.4 µM (inactive); in experiment [17] it was 26.2 µM (inactive); in [18] it was 5.11 µM (inactive). Also, the GI50 in experiment [19] was 10.3 µM (inactive); in experiment [20] it was 3.52 µM (inactive).

For the origin of these results see ChEMBL document CHEMBL1201862, “PubChem BioAssay data set” (2004).
